According to article PMC11647725, “Discovery of 4-(5-Membered)Heteroarylether-6-methylpicolinamide Negative Allosteric Modulators of Metabotropic Glutamate Receptor Subtype 5” (ACS Medicinal Chemistry Letters, 2024):

How the values were obtained:
[1] = target: T1, human mGlu8 (Homo sapiens, UniProt O00222); test: mGlu selectivity, calcium mobilization assay; format: cell-based
T1 construct: expressed in transfected cells
Protocol: (§1) the presence of 5% CO2, the dye solutions were removed and replaced with assay buffer using a microplate washer, leaving 20 μL of assay buffer in the cell plate. The compound, agonist, and cell plates were placed inside the Functional Drug Screening System (FDSS 7000 or uCell, Hamamatsu, Japan) to measure the calcium flux. Assays were run at 37 °C. A triple add protocol was used to measure Ca kinetics. Briefly, after establishment of a fluorescence baseline for 2 seconds (excitation, 480 nm; emission, 530 nm), 20 µL of test compound was added to the cells and the response was measured for 140 seconds. This was followed by the addition of 10 µL (5X) of an EC20 concentration of Glu agonist, and the response of the cells was measured for 125 seconds. A third addition occurred by adding 12 uL (5X) of an EC80 concentration of Glu agonist and the response of the cells was measured for 90 seconds. […] Calcium fluorescence was recorded as fold over basal fluorescence and raw data were normalized to the maximal response to Glu agonist (ECMax). Compound-evoked decreases in calcium response in the presence of Glu EC80 agonist were determined as inhibition activity, and potency (IC50) and maximum inhibition responses (% GluMin) of compounds were determined using a four-parameter logistical equation using GraphPad Prism (La Jolla, CA) or the Dotmatics software platform (Woburn, MA) : […]

[2] = target: T2, human mGlu7 (Homo sapiens, UniProt Q14831); test: mGlu selectivity, calcium mobilization assay; format: cell-based
T2 construct: expressed in transfected cells
Protocol: as §1

T1 sequence (O00222 34-908): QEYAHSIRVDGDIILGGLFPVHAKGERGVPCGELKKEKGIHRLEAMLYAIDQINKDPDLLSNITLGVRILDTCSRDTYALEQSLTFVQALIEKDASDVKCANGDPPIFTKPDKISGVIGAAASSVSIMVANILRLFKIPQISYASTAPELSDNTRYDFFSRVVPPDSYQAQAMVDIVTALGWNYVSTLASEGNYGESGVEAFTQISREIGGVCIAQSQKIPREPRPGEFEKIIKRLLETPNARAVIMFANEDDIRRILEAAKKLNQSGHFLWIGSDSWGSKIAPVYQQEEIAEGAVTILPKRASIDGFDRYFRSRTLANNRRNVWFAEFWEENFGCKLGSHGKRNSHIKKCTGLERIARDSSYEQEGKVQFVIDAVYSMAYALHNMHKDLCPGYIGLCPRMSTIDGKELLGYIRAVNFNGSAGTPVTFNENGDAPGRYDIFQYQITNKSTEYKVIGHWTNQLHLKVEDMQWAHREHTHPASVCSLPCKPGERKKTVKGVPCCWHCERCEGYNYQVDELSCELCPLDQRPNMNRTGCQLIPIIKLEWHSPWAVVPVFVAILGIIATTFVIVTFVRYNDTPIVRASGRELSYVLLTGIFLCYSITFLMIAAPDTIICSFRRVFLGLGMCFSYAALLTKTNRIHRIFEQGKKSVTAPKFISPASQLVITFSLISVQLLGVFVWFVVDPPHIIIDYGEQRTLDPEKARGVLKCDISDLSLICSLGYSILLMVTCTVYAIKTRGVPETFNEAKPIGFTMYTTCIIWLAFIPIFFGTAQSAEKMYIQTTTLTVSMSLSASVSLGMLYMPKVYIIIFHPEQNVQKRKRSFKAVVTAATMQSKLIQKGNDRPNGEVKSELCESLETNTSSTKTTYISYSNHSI
T2 sequence (Q14831 35-915): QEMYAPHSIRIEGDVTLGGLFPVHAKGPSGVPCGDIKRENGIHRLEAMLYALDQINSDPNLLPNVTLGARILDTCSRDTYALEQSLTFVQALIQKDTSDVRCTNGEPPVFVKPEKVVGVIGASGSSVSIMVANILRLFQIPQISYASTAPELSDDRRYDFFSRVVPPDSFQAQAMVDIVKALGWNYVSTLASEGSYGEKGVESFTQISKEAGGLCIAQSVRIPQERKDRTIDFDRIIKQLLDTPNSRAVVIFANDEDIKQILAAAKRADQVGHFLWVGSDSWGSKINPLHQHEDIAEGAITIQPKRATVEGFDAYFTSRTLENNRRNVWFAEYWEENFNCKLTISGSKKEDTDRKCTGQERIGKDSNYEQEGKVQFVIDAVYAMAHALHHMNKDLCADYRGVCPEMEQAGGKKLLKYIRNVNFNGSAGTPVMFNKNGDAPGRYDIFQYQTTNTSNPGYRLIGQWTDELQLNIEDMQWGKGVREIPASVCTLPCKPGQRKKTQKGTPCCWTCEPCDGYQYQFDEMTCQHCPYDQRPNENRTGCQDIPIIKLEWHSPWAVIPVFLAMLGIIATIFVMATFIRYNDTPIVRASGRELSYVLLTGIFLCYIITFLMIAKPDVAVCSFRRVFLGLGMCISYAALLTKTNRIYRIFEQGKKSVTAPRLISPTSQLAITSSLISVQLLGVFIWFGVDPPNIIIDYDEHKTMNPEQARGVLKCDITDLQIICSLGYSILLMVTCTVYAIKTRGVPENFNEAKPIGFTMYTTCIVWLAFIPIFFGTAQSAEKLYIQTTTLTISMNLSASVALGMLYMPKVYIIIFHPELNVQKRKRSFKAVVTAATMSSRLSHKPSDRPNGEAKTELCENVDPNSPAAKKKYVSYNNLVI

Compound: Cc1cc(Oc2cnn(C)c2)cc(C(=O)Nc2ccc(F)cn2)n1 [22iA]
- IC50, human mGlu8 [1]: inactive
- IC50, human mGlu7 [2]: inactive
